In one assay the target is T1, FLT3-ITD (Homo sapiens, UniProt P36888, DUP595-601).
T1 construct: purchased Signalchem F-12-12CG-10
T1 sequence (P36888 with tags, fused parts or gaps DUP595-601 limits assumed): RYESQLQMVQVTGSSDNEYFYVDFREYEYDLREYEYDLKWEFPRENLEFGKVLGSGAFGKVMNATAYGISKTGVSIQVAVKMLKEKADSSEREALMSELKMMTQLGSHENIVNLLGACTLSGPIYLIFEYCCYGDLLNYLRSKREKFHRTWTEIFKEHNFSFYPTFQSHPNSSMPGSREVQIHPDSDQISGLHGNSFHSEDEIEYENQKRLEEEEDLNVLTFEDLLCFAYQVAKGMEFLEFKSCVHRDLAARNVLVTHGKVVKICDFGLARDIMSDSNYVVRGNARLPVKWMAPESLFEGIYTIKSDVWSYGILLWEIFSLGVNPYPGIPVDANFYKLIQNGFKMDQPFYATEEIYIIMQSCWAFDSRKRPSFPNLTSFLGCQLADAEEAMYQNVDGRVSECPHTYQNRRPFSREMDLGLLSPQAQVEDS
Kind of assay: FLT3-ITD Lance Ultra TR-FRET kinase assay. In kind it is biochemical. An outline of the steps:
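Lance Ultra TR-FRET with 50 nM ULight-JAK-1 (Tyr1023) peptide, Eu-anti-phosphotyrosine (PT66) detection, in HEPES pH 7.5 buffer at 23° C, 30 min enzyme/compound preincubation. WT: 0.5 nM enzyme, 100 μM ATP, 30 min; ITD: 0.0625 nM, 50 μM ATP, 60 min. IC50 by four-parameter fit of 11-point 3× dilutions.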
For orientation: Time-resolved FRET reads energy transfer from a long-lived donor to a nearby acceptor.

The next assay concerns MV-4-11. The experiment in a line: Proliferation inhibition, CellTiter-Glo, MV-4-11. In kind it is cell-based, human. The settings on record: Homo sapiens, MV4-11, 96 h; MV-4:11 cells, IC50 (4 days), CellTiter-Glo; read-out: MV-4:11 IC50. In short, it runs like this:
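About 10,000 cells per well in RPMI-1640 with 10% FBS. Compounds added 2 h after seeding at eight concentrations in duplicate (0.2% DMSO as 100% proliferation), then incubated ~96 h at 37° C, 5% CO2. ATP measured by CellTiter-Glo luminescence; IC50 from four-parameter logistic fit.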
On the technique in general: In ATP-based viability assays light output follows the ATP content of the culture.

Consider `CCc1nc(C(N)=O)c(Nc2cccc(CCNC(=O)CN(C)C(=O)/C=C/CN(C)C)c2)nc1N(C)CC` [Compound 252, (E)-3-((3-(2-(2-(4-(dimethylamino)-N-methylbut-2-enamido)acetamido)ethyl)phenyl)amino)-6-ethyl-5-(ethyl (methyl)amino) pyrazine-2-carboxamide], for which the concentration for half-maximal inhibition (IC50) against FLT3-ITD was 0.101 to 0.2 nM; in the assay with MV-4-11, less than 1 nM. As for `CCc1nc(C(N)=O)c(Nc2ccc(N3CCC(N4CCN(C)CC4)CC3)c(OC)c2)nc1NC1CCOCC1` [Gilteritinib, gilteritinib, reference compound], the half-inhibitory concentration (IC50) with MV-4-11 was in the range of 1 to 10 nM.

As for `CCc1nc(C(N)=O)c(Nc2cccc([C@@H](C)CNC(=O)CN(C)C(=O)/C=C/CN3CCC3)c2)nc1N(C)CC` [Compound 518, (R,E)-3-((3-(1-(2-(4-(azetidin-1-yl)-N-methylbut-2-enamido)acetamido)propan-2-yl)phenyl)amino)-6-ethyl-5-(ethyl(methyl)amino)pyrazine-2-carboxamide], the values for the IC50 at FLT3-ITD and in the assay on MV-4-11 were 0.101 to 0.2 nM and less than 1 nM, respectively. For `CCc1nc(C(N)=O)c(Nc2cccc(CCNC(=O)[C@H](C)N(C)C(=O)/C=C/CN(C)C)c2)nc1N(C)C(C)C` [Compound 204, (S,E)-3-((3-(2-(2-(4-(dimethylamino)-N-methylbut-2-enamido)propanamido)ethyl)phenyl)amino)-6-ethyl-5-(isopropyl(methyl)amino)pyrazine-2-carboxamide], in that order: 0.101 to 0.2 nM and less than 1 nM. Taken in the same sequence, the figures for `Cc1nc(C(N)=O)c(Nc2cccc(CCNC(=O)[C@H](C)N(C)C(=O)/C=C/CN(C)C)c2)nc1N(C)C(C)C` [Compound 232, (S, E)-3-((3-(2-(2-(4-(dimethylamino)-N-methylbut-2-enamido)propanamido)ethyl)phenyl)amino)-5-(isopropyl (methyl)amino)-6-methylpyrazine-2-carboxamide] were 0.501 to 1 nM and less than 1 nM. Taken in the same sequence, the figures for `CCc1nc(C(N)=O)c(Nc2cccc(CCNC(=O)[C@H](C)N(C)C(=O)/C=C/CN(C)C)c2)nc1NC(C)C` [Compound 205, (S,E)-3-((3-(2-(2-(4-(dimethylamino)-N-methylbut-2-enamido)propanamido)ethyl)phenyl)amino)-6-ethyl-5-(isopropylamino)pyrazine-2-carboxamide] were 0.101 to 0.2 nM and less than 1 nM. As to `CCc1nc(C(N)=O)c(Nc2cccc([C@@H](C)CNC(=O)CN(C)C(=O)/C=C/CN3CCC3)c2)nc1C1CC1` [Compound 506, (R,E)-3-((3-(1-(2-(4-(azetidin-1-yl)-N-methylbut-2-enamido)acetamido)propan-2-yl)phenyl)amino)-5-cyclopropyl-6-ethylpyrazine-2-carboxamide], the IC50 is 0.201 to 0.5 nM at FLT3-ITD and 1 to 10 nM in the assay on MV-4-11.

Regarding `CCc1nc(C(N)=O)c(Nc2cccc(CCNC(=O)CN(C)C(=O)/C=C/CN3CCC3)c2)nc1OC(C)C` [Compound 603, (E)-3-((3-(2-(2-(4-(azetidin-1-yl)-N-methylbut-2-enamido)acetamido)ethyl)phenyl)amino)-6-ethyl-5-isopropoxypyrazine-2-carboxamide], the results for the IC50 against FLT3-ITD and with MV-4-11 were 0.201 to 0.5 nM and less than 1 nM, respectively.

Regarding `CCCc1nc(Nc2cccc([C@@H](C)CNC(=O)CN(C)C(=O)/C=C/CN3CCC3)c2)c(C(N)=O)nc1CC` [Compound 507, (R,E)-3-((3-(1-(2-(4-(azetidin-1-yl)-N-methylbut-2-enamido)acetamido)propan-2-yl)phenyl)amino)-6-ethyl-5-propylpyrazine-2-carboxamide], the IC50 against FLT3-ITD fell in the range of 0.201 to 0.5 nM; in the assay with MV-4-11, 1 to 10 nM.

With `CCc1nc(Nc2cccc([C@@H](C)CNC(=O)CN(C)C(=O)/C=C/CN3CCC3)c2)c(C(N)=O)nc1CC` [Compound 508, (R, E)-3-((3-(1-(2-(4-(azetidin-1-yl)-N-methylbut-2-enamido)acetamido)propan-2-yl)phenyl)amino)-5,6-diethylpyrazine-2-carboxamide], the IC50 was 0.501 to 1 nM at FLT3-ITD and more than 500 nM in the assay with MV-4-11. Consider `CCc1nc(C(N)=O)c(Nc2ccnc(CCNC(=O)[C@H](C)N(C)C(=O)/C=C/CN(C)C)c2)nc1N(C)C(C)C` [Compound 605, (S, E)-3-((2-(2-(2-(4-(dimethylamino)-N-methylbut-2-enamido)propanamido)ethyl)pyridin-4-yl)amino)-6-ethyl-5-(isopropyl (methyl)amino) pyrazine-2-carboxamide], for which the IC50 at FLT3-ITD was 0.201 to 0.5 nM; in the assay with MV-4-11, less than 1 nM. For `CCc1nc(C(N)=O)c(Nc2cccc(CCNC(=O)[C@H](C)N(C)C(=O)/C=C/CNC)c2)nc1N(C)C(C)C` [Compound 307, (S,E)-6-ethyl-5-(isopropyl(methyl)amino)-3-((3-(2-(2-(N-methyl-4-(methylamino)but-2-enamido)propanamido)ethyl)phenyl)amino)pyrazine-2-carboxamide], in that order: 0.201 to 0.5 nM and less than 1 nM. With `CCc1nc(C(N)=O)c(Nc2cccc([C@@H](C)CNC(=O)CN(C)C(=O)/C=C/CN(C)C)c2)nc1C1CC1` [Compound 504, (R,E)-5-cyclopropyl-3-((3-(1-(2-(4-(dimethylamino)-N-methylbut-2-enamido)acetamido)propan-2-yl)phenyl)amino)-6-ethylpyrazine-2-carboxamide], the half-inhibitory concentration (IC50) with MV-4-11 was less than 1 nM.

With `CCc1nc(C(N)=O)c(Nc2cccc(CCNC(=O)CN(C)C(=O)/C=C/CN3CCC3)c2)nc1N(C)CC` [Compound 516A, (E)-3-((3-(2-(2-(4-(azetidin-1-yl)-N-methylbut-2-enamido)acetamido)ethyl)phenyl)amino)-6-ethyl-5-(ethyl(methyl)amino) pyrazine-2-carboxamide], the IC50 against FLT3-ITD is 0.101 to 0.2 nM; in the assay with MV-4-11, less than 1 nM.

On to `CCOc1nc(Nc2cccc(CCNC(=O)CN(C)C(=O)/C=C/CN3CCC3)c2)c(C(N)=O)nc1CC` [Compound 602, (E)-3-((3-(2-(2-(4-(azetidin-1-yl)-N-methylbut-2-enamido)acetamido)ethyl)phenyl)amino)-5-ethoxy-6-ethylpyrazine-2-carboxamide], for which the IC50 was 0.201 to 0.5 nM against FLT3-ITD and less than 1 nM in the assay on MV-4-11. Taken in the same sequence, the figures for `CCc1nc(C(N)=O)c(Nc2ccnc(CCNC(=O)[C@H](C)N(C)C(=O)/C=C/CN(C)C)c2)nc1C1CC1` [Compound 310, (S,E)-5-cyclopropyl-3-((2-(2-(2-(4-(dimethylamino)-N-methylbut-2-enamido)propanamido)ethyl)pyridin-4-yl)amino)-6-ethylpyrazine-2-carboxamide] were 0.501 to 1 nM and less than 1 nM.

With `CCc1nc(C(N)=O)c(Nc2cc(F)cc(CCNC(=O)CN(C)C(=O)/C=C/CN3CCC3)c2)nc1C1CC1` [Compound 516, (E)-3-((3-(2-(2-(4-(azetidin-1-yl)-N-methylbut-2-enamido)acetamido)ethyl)-5-fluorophenyl)amino)-5-cyclopropyl-6-ethylpyrazine-2-carboxamide], the IC50 against FLT3-ITD was 0.101 to 0.2 nM; with MV-4-11, 1 to 10 nM. Taken in the same sequence, the figures for `Cc1nc(C(N)=O)c(Nc2cccc(CCNC(=O)CN(C)C(=O)/C=C/CN(C)C)c2)nc1N(C)C(C)C` [Compound 250, (E)-3-((3-(2-(2-(4-(dimethylamino)-N-methylbut-2-enamido)acetamido)ethyl)phenyl)amino)-5-(isopropyl(methyl)amino)-6-methylpyrazine-2-carboxamide] were 0.201 to 0.5 nM and less than 1 nM. Turning to `CCc1nc(C(N)=O)c(Nc2cccc(CCNC(=O)CN(C)C(=O)/C=C/CN(C)C)c2)nc1C1CC1` [Compound 219, (E)-5-cyclopropyl-3-((3-(2-(2-(4-(dimethylamino)-N-methylbut-2-enamido)acetamido)ethyl)phenyl)amino)-6-ethylpyrazine-2-carboxamide], the IC50 with MV-4-11 is less than 1 nM.

What is called IC50 is the concentration that inhibits the measured activity by half.

The values are drawn from patent US20240262795A1, “PYRAZINE COMPOUNDS AS INHIBITORS OF FLT3” (Biomea Fusion, Inc., priority 2021, published 2024).
